Results on 13 compounds are retold here after patent US6673788B2, “Electrophilic ketones for the treatment of herpesvirus infections” (G. D. Searle & Co., priority 1996, dated 2004).

The structures appear in SMILES notation. Like-named read-outs stand apart in the source and are kept apart here. Some results are limits rather than exact numbers.

The subject of data set [1] is human foreskin fibroblasts. It counts as cell-based. The text has this:
(§1) These complimentary assays tested the ability of a compound to inhibit the production of new virus and the toxicity of the compound to the host cells. It was important that both assays be performed simultaneously in order to compare the results directly since, toxicity may indirectly reduce viral yield.
Viral yield was estimated by measuring the amount of a viral antigen produced 4 days post infection with a monoclonal antibody to an abundant “immediate early” viral protein. An enzyme-linked (horseradish peroxidase) secondary antibody specific to the primary (mouse) antibody was used to measure the amount of viral antigen. Test compounds were diluted to 2-times the desired final concentration in DMEM+5% FBS. One hundred microliters of this solution was placed in each well of a 96-well plate. This was performed once for the antiviral 96-well plate and again for a cytotoxicity plate. Two controls were also included for both plates; a no drug control and a no virus control. Ganciclovir was routinely tested in antiviral and cytotoxicity plates as a reference standard because it has known antiviral activity for HCMV. All cells were prepared by harvesting human foreskin fibroblasts, with trypsin and re-suspending at a concentration of 5×10^5 cells per ml in DMEM. Infected cells were prepared by infecting these with HCMV (strain AD169) at a multiplicity of infection=0.2. One hundred microliters of uninfected cells (5×10^4 cells) were added to the appropriate wells of the cytotoxicity plate. In a similar manner 100 μl of infected cells (5×10^4 cells) were added to the appropriate wells of the antiviral plate. […]
In this assay, HCMV replication was monitored by the production of E. coli beta-galactosidase by the engineered virus RC256 [Spaete and Mocarski, Proc. Nat. […] The reaction was stopped with 100 μl 1M CAPS buffer, pH=11.0, per well and the optical density was read at 410 nanometers. Ganciclovir was used as a positive control and the EC50 was determined as described above for the HCMV ELISA. […]

Data set [2] has as its target HCMV protease (Assemblin) (Human cytomegalovirus, UniProt P16753). Put plainly: Enzymatic assay for HCMV protease (assemblin) inhibitors. The data set is classed as biochemical. The conditions noted are these: pNA substrate, 30 min preincubation. Here is the method:
Assemblin protease activity was determined using a chromogenic para-nitroanilide (pNA) substrate based on the hCMV maturation cleavage site, succinyl-AGVVNA-para-nitroanilide. […] Potential protease inhibitors were dissolved in DMSO and 10 μL were added to the wells of a 96-well plate (Dynatech, Immulon 1). Enzyme was diluted to 4.8 μg/mL in assay buffer (10 mM sodium phosphate, pH 7.4, 150 mM sodium acetate, 0.1% CHAPS, 20% glycerol) and 100 μL were added to each well. Following a 30 minute incubation at room temperature, 50 μL substrate (1 part 20 mM succinyl-AGVVNA-paranitroanilide (SEQID:1) in DMSO plus 9 parts assay buffer) were added, and periodic readings taken in a microplate reader at 405 nm relative to 650 nm. Activities were expressed as milliabsorbance unit (mAU) change per minute. Inhibitor potency was determined by comparison with incubations lacking inhibitor, which under these conditions gave an increase of 0.5-1 mAU/min. No increase was seen when enzyme was omitted. Results [IC50 (μM)] are included in Table 1.
The construction also encoded six additional histidine residues at the amino terminus of the protease. These additional histidine residues provided an affinity ligand by which it was purified using nickel-nitriloacetic acid-agarose (Qiagen).
The purified protease was stored as a 1-3 mg/ml stock solution in 20 mM HEPES buffer, pH 7.4; containing 20% (v/v) glycerol. This stock was diluted with assay buffer to 4.8 μg/ml. A 100 μL aliquot of this solution was used in the enzyme reaction.
A specific substrate was synthesized based on the cleavage specificity of HCMV protease at the “maturation site” of the assembly protein (F. Liu and B. Roizman, J. Virol., 65, 5149 (1991), and A. Welch, et al, J. Virol., 65, 4091 (1991)). The assembly protein maturation site has the sequence . . . AGVVNA*SCRLATA . . .; the substrate used was succinyl-AGVVNA-PNA (SEQID:1) which was prepared by standard peptide synthetic methods such as that described in Bodansky and Bodansky, “The Practice of Peptide Synthesis” (1984), and was stored as a stock solution at 20 mM in dimethyl sulfoxide. This was diluted 10-fold with assay buffer to give a concentration of 2 mM just before use. An aliquot of 50 μL was used in the reaction
An assay Buffer (10 mM sodium phosphate buffer, pH 7.4; 150 mM sodium acetate; 0.1% CHAPS; and 20% (v/v) glycerol) was used to dilute stock solutions of enzyme and substrate.

In data set [3] the target is T1, Bovine pancreas α-chymotrypsin (Bos taurus, UniProt P00766, DEL14-15/DEL147-148).
T1 construct: purchased Sigma type II; host or cells: bovine pancreas
Kind of data set: Chymotrypsin assay. It counts as biochemical. As to the method: The chymotrypsin assay was modified from the method of Delmar et al [Anal. Biochem., 99, 316-320 (1979)]. Bovine pancreas α-chymotrypsin (type II, Sigma) was dissolved in 0.001 N HCl at 1 mg/ml and further diluted 1/600 in assay buffer (0.1 M Tris, pH 7.8, containing 0.1 M CaCl2) before use. 20 μl of test compound in DMSO (or DMSO alone), 100 μl of assay buffer and 30 μl of enzyme were added to 96 well plates, mixed and pre-incubated for 30 minutes at ambient temperature. Reaction was initiated by addition of 50 μl of 0.2 mM N-succinyl-Ala-Ala-Pro-Phe-p-nitroanilide (Sigma; 2 mM in DMSO diluted 1/10 in assay buffer before use). The increase in absorbance at 405 nm was monitored for 10 minutes with a Biotek EL340 plate reader.

Data set [4] concerns human foreskin fibroblasts. It counts as cell-based. The conditions noted are these: 96 h.
From the text: as §1
Viral yield was estimated by measuring the amount of a viral antigen produced 4 days post infection with a monoclonal antibody to an abundant “immediate early” viral protein. An enzyme-linked (horseradish peroxidase) secondary antibody specific to the primary (mouse) antibody was used to measure the amount of viral antigen. Test compounds were diluted to 2-times the desired final concentration in DMEM+5% FBS. One hundred microliters of this solution was placed in each well of a 96-well plate. This was performed once for the antiviral 96-well plate and again for a cytotoxicity plate. Two controls were also included for both plates; a no drug control and a no virus control. Ganciclovir was routinely tested in antiviral and cytotoxicity plates as a reference standard because it has known antiviral activity for HCMV. All cells were prepared by harvesting human foreskin fibroblasts, with trypsin and re-suspending at a concentration of 5×10^5 cells per ml in DMEM. Infected cells were prepared by infecting these with HCMV (strain AD169) at a multiplicity of infection=0.2. […]

Sequence of HCMV protease (Assemblin) (P16753 1-256): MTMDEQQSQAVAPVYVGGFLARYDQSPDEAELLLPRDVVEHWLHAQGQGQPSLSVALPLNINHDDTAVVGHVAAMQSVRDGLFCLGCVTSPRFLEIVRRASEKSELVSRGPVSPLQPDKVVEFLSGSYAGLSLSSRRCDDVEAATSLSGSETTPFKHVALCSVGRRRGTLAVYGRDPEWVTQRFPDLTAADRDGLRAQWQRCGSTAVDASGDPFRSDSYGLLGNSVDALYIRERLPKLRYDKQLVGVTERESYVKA

As a reminder, the melting point is the temperature of the solid-liquid transition. In the case of `O=C(COc1ccc(Cl)cc1)Nc1ccccc1C(=O)C(F)(F)F` [Example 14, N-[2-(2,2,2-Trifluoro-1-oxoethyl)phenyl]4-chlorophenoxyacetamide], the melting point was in the range of 134 to 135 °C.

One may read the IC50 as the concentration that gives 50% inhibition. Low values mean greater potency, high ones weaker potency. On to `O=C(Nc1ccccc1C(=O)C(F)(F)F)c1cc2ccccc2s1` [Example 9, N-[2-(2,2,2-Trifluoro-1-oxoethyl)phenyl]-1-benzothiophene-2-carboxamide], for which the “Antiviral Activity TD50” value in data set [1] (3 days) was > 100 µM. In data set [2], this compound showed an IC50 of 26 µM. Besides, in data set [3] (@ 100 μM), the “Chymotrypsin % @ Conc. (μM)” value worked out at 48% @ 100.

For `O=C(CCc1ccccc1)Nc1cc([N+](=O)[O-])ccc1C(=O)C(F)(F)F` [Example 7, N-[5-Nitro-2-[2,2,2-trifluoro-1-oxoethyl)phenyl]benzenepropanamide], the “Antiviral Activity TD50” value in data set [4] was > 100 µM.

Take `O=C(Nc1ccccc1C(=O)C(F)(F)F)c1cc2ccccc2o1` [Example 16, N-[2-(2,2,2-Trifluoro-1-oxoethyl)phenyl]benzofuranyl-2-carboxamide]: the melting point was in the range of 130 to 132 °C. Half-maximal inhibition in data set [2] (IC50) was put at 36 µM.

Compound `O=C(CCc1ccccc1)Nc1ccccc1C(=O)C(F)(F)F` [Example 4, N-[2-(2,2,2-Trifluoro-1-oxoethyl)phenyl]benzenepropanamide] returned an IC50 in data set [2] of 49 µM.

Compound `COc1ccccc1C(=O)Nc1ccccc1C(=O)C(F)(F)C(=O)NC(C)C` [Example 17, N-[2-(3-(2-Propylamino)-3-oxo-2,2-difluoro-1-oxopropyl)phenyl]2-methoxyphenylcarboxamide] yielded a melting point of 131.5 to 132 °C. The same compound gave a 50% inhibitory concentration (IC50) in data set [2] of 8.5 µM.

Regarding `O=C(Nc1ccccc1C(=O)C(F)(F)F)C(F)(F)F` [Example 10, α,α,α-Trifluoro-N-[2-(2,2,2-trifluoro-1-oxoethyl)phenyl]acetamide], the “Antiviral Activity TD50 (μM)” value in data set [4] is given as >100/>100 μM.

`O=C(Nc1ccccc1C(=O)C(F)(F)F)c1cc2ccccc2[nH]1` [Example 15, N-[2-(2,2,2-Trifluoro-1-oxoethyl)phenyl]indolyl-2-carboxamide]: the melting point lay within 188 to 193 °C.

Compound `O=C(Nc1ccccc1C(=O)C(F)(F)F)OCc1ccccc1` [Example 6, Phenylmethyl N-[2-(2,2,2-trifluoro-1-oxoethyl)phenyl]carbamate] gave an IC50 in data set [2] of 17 µM.

In data set [2], `O=C(Nc1ccccc1C(=O)C(F)(F)F)c1ccco1` [Example 1, N-[2-(2,2,2-Trifluoro-1-oxoethyl)phenyl]furan-2-carboxamide] showed an IC50 of 7.7 µM. Also, the “Chymotrypsin % @ Conc. (μM)” value in data set [3] (@ 300 μM) was found to be 0% @ 300.

On to `O=C(Nc1ccc(I)cc1C(=O)C(F)(F)F)c1ccco1` [Example 13, N-[4-Iodo-2-(2,2,2-trifluoro-1-oxoethyl)phenyl]furan-2-carboxamide], for which, in data set [1], the “Antiviral Activity TD50” value is > 100 µM. In data set [2], this compound came in with an IC50 of 8.3 µM.

For the compound `O=C(Nc1ccccc1C(=O)C(F)(F)F)c1cnccn1` [Example 5, N-[2-(2,2,2-Trifluoro-1-oxoethyl)phenyl]pyrazine-2-carboxamide], the “Antiviral Activity TD50” value in data set [1] (3 days) was > 100 µM. Further, the half-maximal inhibitory concentration (IC50) in data set [2] amounted to 3.7 µM. The “Chymotrypsin % @ Conc. (μM)” value in data set [3] (@ 300 μM) stood at 0% @ 300.

As for `O=C(CCc1ccccc1)Nc1cc(F)ccc1C(=O)C(F)(F)F` [Example 2, N-[5-Fluoro-2-(2,2,2-trifluoro-1-oxoethyl)phenyl]benzenepropanamide], the IC50 in data set [2] was found to be 5.3 µM.
